Read-outs that look alike come from different tables or passages of the source.

Data set [1] deals with A2780 ovarian carcinoma cells. As to the kind of experiment: In vitro cytotoxicity (MTT assay), A2780. Format: cell-based, human. As to the method:
(§1) The reference normal cell line of human fetal fibroblasts (MRC-5) was obtained from the same commercial source and maintained according to the producer’s instructions. The half-maximal inhibitory concentrations (IC50) were calculated from dose–response curves by means of the GraphPad Prism 6 software (GraphPad Software, San Diego, CA, USA).
(In general: Formazan colour is commonly taken as a measure of viable cells.)

For data set [2], the system named is A2780R Cisplatin-resistant ovarian carcinoma cells. The experiment in a line: In vitro cytotoxicity (MTT assay), A2780R. Format: cell-based, human. Particulars: ± standard deviation, triplicate. On the procedure: as §1, with “The testing was performed on the ovarian carcinoma (A2780), Cisplatin-resistant ovarian carcinoma (A2780R), prostate adenocarcinoma (PC-3), prostate carcinoma (22Rv1), and leukemia monocytic (THP-1) and intestinal colon adenocarcinoma (LS180) human cell lines that were obtained from the ATCC collection of cell lines and cultivated according to the producer’s instructions. The reference” for “The reference”

Data set [3] relates to PC-3 prostate adenocarcinoma cells. The experiment in a line: In vitro cytotoxicity (MTT assay), PC-3. Format: cell-based, human. Particulars: ± standard deviation, triplicate. On the procedure:
as §1, with “The testing was performed on the ovarian carcinoma (A2780), Cisplatin-resistant ovarian carcinoma (A2780R), prostate adenocarcinoma (PC-3), prostate carcinoma (22Rv1), and leukemia monocytic (THP-1) and intestinal colon adenocarcinoma (LS180) human cell lines that were obtained from the ATCC collection of cell lines and cultivated according to the producer’s instructions. The reference” for “The reference”

Data set [4] has as its system 22Rv1 prostate carcinoma cells. As to the kind of experiment: In vitro cytotoxicity (MTT assay), 22Rv1. Particulars: ± standard deviation, triplicate. Format: cell-based, human. On the procedure:
as §1, with “The testing was performed on the ovarian carcinoma (A2780), Cisplatin-resistant ovarian carcinoma (A2780R), prostate adenocarcinoma (PC-3), prostate carcinoma (22Rv1), and leukemia monocytic (THP-1) and intestinal colon adenocarcinoma (LS180) human cell lines that were obtained from the ATCC collection of cell lines and cultivated according to the producer’s instructions. The reference” for “The reference”

The test system of data set [5] is THP-1 leukemia monocytic cells. The experiment in a line: In vitro cytotoxicity (MTT assay), THP-1. Format: cell-based, human. Particulars: ± standard deviation, triplicate. As to the method:
as §1, with “The testing was performed on the ovarian carcinoma (A2780), Cisplatin-resistant ovarian carcinoma (A2780R), prostate adenocarcinoma (PC-3), prostate carcinoma (22Rv1), and leukemia monocytic (THP-1) and intestinal colon adenocarcinoma (LS180) human cell lines that were obtained from the ATCC collection of cell lines and cultivated according to the producer’s instructions. The reference” for “The reference”

Data set [6] relates to LS180 intestinal colon adenocarcinoma cells. The experiment in a line: In vitro cytotoxicity (MTT assay), LS180. Format: cell-based, human. Particulars: ± standard deviation, triplicate. As to the method: as §1, with “The testing was performed on the ovarian carcinoma (A2780), Cisplatin-resistant ovarian carcinoma (A2780R), prostate adenocarcinoma (PC-3), prostate carcinoma (22Rv1), and leukemia monocytic (THP-1) and intestinal colon adenocarcinoma (LS180) human cell lines that were obtained from the ATCC collection of cell lines and cultivated according to the producer’s instructions. The reference” for “The reference”

Data set [7] relates to MRC5 human fetal fibroblasts. As to the kind of experiment: In vitro cytotoxicity (MTT assay), normal MRC-5 fibroblasts. Format: cell-based. Particulars: ± standard deviation, triplicate, read-out: IC50, MRC5 (healthy cells). As to the method: as §1, with “The testing was performed on the ovarian carcinoma (A2780), Cisplatin-resistant ovarian carcinoma (A2780R), prostate adenocarcinoma (PC-3), prostate carcinoma (22Rv1), and leukemia monocytic (THP-1) and intestinal colon adenocarcinoma (LS180) human cell lines that were obtained from the ATCC collection of cell lines and cultivated according to the producer’s instructions. The reference” for “The reference”

Data set [8] has as its system human cancer cell lines (A2780, A2780R, PC-3, 22Rv1, and THP-1). The experiment in a line: In vitro cytotoxicity, summary statements over the panel of cell lines. Format: cell-based. As to the method:
as §1, with “The testing was performed on the ovarian carcinoma (A2780), Cisplatin-resistant ovarian carcinoma (A2780R), prostate adenocarcinoma (PC-3), prostate carcinoma (22Rv1), and leukemia monocytic (THP-1) and intestinal colon adenocarcinoma (LS180) human cell lines that were obtained from the ATCC collection of cell lines and cultivated according to the producer’s instructions. The reference” for “The reference”

Data set [9] relates to A2780 cells. The experiment in a line: Cell cycle analysis (flow cytometry). Format: cell-based, human. Particulars: A2780, half-cytotoxic concentration, 24 h. On the procedure: After 24 h, the cells were treated with a 4 µM solution of complex (1) and cultivated for the next 24 h. Then, the cells were washed once with PBS (0.1 M, pH 7.4), and cell cycle analysis was performed using a BD Cycletest^TM Plus DNA kit (Becton Dickinson, Franklin Lakes, NJ, USA) according to the manufacturer’s protocol. The data were acquired using a BD FACSVerse flow cytometer (Becton Dickinson, USA) in three independent experiments, each performed in duplicate, while at least 5 × 10^3 events were recorded for each sample.
(A flow cytometer gives signals particle by particle.)

The test system of data set [10] is A2780 cells. As to the kind of experiment: Induction of apoptosis, Annexin V-FITC/PI staining. Format: cell-based, human. Particulars: A2780, half-cytotoxic concentration, 24 h. On the procedure: (§2) The induction of cell death by complex (1) was studied by two methods in the A2780 cell line. Firstly, the induction of apoptosis was tested using an Annexin V-FITC/PI commercial kit (V13242, Thermo Fisher Scientific, USA). Second, caspase 3/7 activation was monitored using the CellEvent™ Caspase-3/7 Green Flow Cytometry Assay Kit (C10427, Thermo Fisher Scientific, USA). Both assays were performed according to the manufacturers’ protocols with one modification in the caspase induction assay: the use of CellEvent^TM Caspase-3/7 Green Detection Reagent was only for the detection of caspase 3/7 activation. The general procedure was as follows: 5 × 10^4 cells per well were seeded in a 24-well cell culture plate, and after 24 h, the cells were treated with 4 µM solution of complex (1) and cultivated for next 24 h. […] The trypsin was blocked by adding the cell culture medium to a final volume of 500 µL, and the resulting cell suspensions were divided into two separate 250 µL aliquots. The first set of aliquots was used to evaluate the Annexin V-FITC/PI assay, whilst the second one was used for the caspase 3/7 activation assay. Both assays were performed using a BD FACSVerse flow cytometer (Becton Dickinson, USA) in three independent experiments, each performed in duplicate.

The next data set has as its system caspases 3/7. The experiment in a line: Caspase 3/7 activation (flow cytometry). Format: cell-based, human. Particulars: A2780, half-cytotoxic concentration, 24 h. On the procedure:
as §2

For data set [11], the system named is A2780 cells. The experiment in a line: Induction of autophagy (CYTO-ID kit). Format: cell-based, human. Particulars: A2780, half-cytotoxic concentration, 24 h. On the procedure:
The induction of autophagy by complex (1) was studied using a CYTO-ID® Autophagy Detection Kit 2.0 (ENZO, New York, NY, USA) according to the manufacturer’s protocol. Briefly, the A2780 cells were seeded in a 24-well cell culture plate at 5 × 10^4 cells per well and cultivated for 24 h. The next day, the cells were treated with complex (1) at 4 µM. […] Then, the cells were stained with CYTO-ID® Green stain solution and incubated for 30 min in the dark. After the final wash with PBS, the cell suspensions were analyzed using the BD FACSVerse flow cytometer (Becton Dickinson, USA) in three separate experiments, while at least 10^4 events were recorded for each sample prepared in duplicates. The cells incubated with the mixture of chloroquine (10 µM) and rapamycin (0.5 µM) for 18 h were used as a positive control.

In data set [12] the test system is A2780 cells. As to the kind of experiment: Mitochondrial membrane potential analysis (MITO-ID). Format: cell-based, human. Particulars: A2780, half-cytotoxic concentration, 24 h. On the procedure: The A2780 cells were seeded in 24-well cell culture plates at 5 × 10^4 cells/well and cultivated for 24 h. The next day, the complex (1) was added to a final concentration of 4 µM, and the cells were incubated for another 24 h. […] The cells were then isolated by centrifugation and resuspended in a staining solution prepared according to the manufacturer’s protocol from a MITO-ID® Membrane Potential Detection kit (Enzo Life Sciences, USA). Finally, the cells were analyzed using a BD FACSVerse flow cytometer (Becton Dickinson, USA). The control was carried out by treatment with 2 µM carbonyl cyanide 3-chlorophenylhydrazone (CCCP). Three independent experiments were conducted, each in duplicate.

A further data set deals with NF-κB. The experiment in a line: NF-κB activity in LPS-challenged cells (SEAP reporter). Particulars: 100 nM, 1 h pre-treatment, LPS 24 h, THP1-Blue NF-κB monocytes. Format: cell-based, human. As to the method:
The effect of the tested compounds to influence the function of transcription factor NF-κB was determined on lipopolysaccharide (LPS)-challenged THP1-Blue™ NF-κB cells as we described previously. […] After 24 h incubation, the activity of NF-κB was determined as the amount of secreted embryonic alkaline phosphatase using Quanti-Blue™ medium (Invivogen).

A further data set deals with PPARγ. As to the kind of experiment: Immunocytochemical analysis of PPARγ expression and localisation. Particulars: 100 nM, 1 h pre-treatment, LPS-stimulated THP1-Blue NF-κB macrophages. Format: cell-based, human. On the procedure: THP1-Blue™ NF-κB cells were seeded onto a µ-Slide 8 Well (Ibidi; Gräfelfing, Germany) and differentiated into macrophages by […] (PMA) at the final concentration of 50 ng/mL, as was described previously.
Differentiated macrophages were washed by PBS and covered by fresh serum-free medium for 2 h. […] One hour later, the cells were challenged by LPS for 24 h. Then, the cells were washed by PBS and fixed by 4% paraformaldehyde dissolved in PBS for 10 min. Cell permeabilization and blocking of free binding sites were performed by 0.1% (v/v) Triton X100 and 5% (w/v) bovine serum albumin (BSA) dissolved in PBS for 1 h at room temperature. After that, cells were washed by PBS with 0.1% (v/v) Tween 20 and covered by fresh PBS with 5% BSA and 0.1% Tween 20 containing Alexa Fluor® 546-labelled anti-PPARγ antibody diluted 1:100 (catalogue number sc-7273; Santa Cruz Biotechnology; Dallas, TX, USA) for a further 24 h. Then, cells were washed by PBS with 0.1% Tween 20 and incubated with Hoechst stain diluted 1:2000 for 10 min. The remaining stain was washed out by PBS and covered by fresh PBS for further microscope analysis. The confocal microscope Leica TCS SP8 MP (Leica Microsystems, Mannheim, Germany) was used for obtaining the images for the immunocytochemical analysis of PPARγ expression and localization.

Data set [13] concerns A2780 cells. Particulars: 23 nM concentration ref 25; cited from earlier work.
The next data set relates to Caco-2 cells. Particulars: read-out: IC50, antiproliferative effect, Caco-2 cells; cited from earlier work.

For `c1ccc([PH]([Au][n]2cnc3c(NCc4ccco4)ncnc32)(c2ccccc2)c2ccccc2)cc1` [[Au(kin)(PPh3)] (1), [Au(kin)(PPh3)]], the IC50 – broadly, the concentration that gives 50% inhibition – in data set [1] (24 h incubation, read-out: Time-dependent in vitro cytotoxicity (IC50), A2780, 24 h) is 2900 ± 700 nM; in data set [1] (72 h incubation, read-out: Time-dependent in vitro cytotoxicity (IC50), A2780, 72 h), 3000 ± 600 nM; in [1] (MTT, 24 h incubation, ± standard deviation, triplicate, read-out: IC50, A2780), 2900 ± 700 nM; in [1] (read-out: IC50, A2780, after 48 h and 72 h incubation, 48 h and 72 h incubation, insignificant changes), about 3000 nM; in data set [1] (read-out: Time-dependent in vitro cytotoxicity (IC50), A2780, 48 h, 48 h incubation), 3000 ± 300 nM; in data set [2] it was 5000 ± 1500 nM. Further, the IC50 in data set [3] was 4800 ± 1300 nM; in [4] it was 3700 ± 500 nM; in data set [5] it was 1100 ± 200 nM; in data set [6], over 10000 nM; in [7], over 10000 nM; in data set [8] (A2780, A2780R, PC-3, 22Rv1, and THP-1, read-out: IC50 against human cancer cell lines (summary)) it was 1000 to 5000 nM. In addition, the “selectivity index (SI)” value in [8] (IC50 for normal cell line/IC50 for cancerous cell line) was “higher than 2”. Moreover, the “Population of cells in G2/M phase” value in the data set on A2780 cells [9] is 24.8 ± 1.0%. In the data set with A2780 cells [9], the “Population of cells in S phase” value is recorded as 22.6 ± 1.6%. Moreover, the “Number of cells in the G0/G1 phase” value with A2780 cells [9] (vs untreated control) is “significant decrease in the number of cells in the G0/G1 phase”. Besides, in the data set on A2780 cells [10], the “Cells in early stage apoptosis (Annexin V+/PI-)” value is listed as “around 10%”. Moreover, in the data set with A2780 cells [10], the “Cells in late stage apoptosis (Annexin V+/PI+)” value is listed as “around 30%”. Moreover, the “Cells with active executioner caspases 3/7” value in the data set on caspases 3/7 is reported as “around 40%”. Further, the “Induction of autophagy” value in the data set with A2780 cells [11] is listed as “not shown to cause metabolic stress strong enough to induce the autophagy”. Further, the “Damage to mitochondrial membranes” value with A2780 cells [12] was “clearly the least effective”. Besides, the “Effect on LPS-stimulated NF-κB activity” value with NF-κB is on record as “did not show any effect on the activity of NF-κB”. Besides, in the data set on PPARγ, the “Effect on the amount of PPARγ” value is on record as “slightly increase the amount of PPARγ”.

`CCN(CC)C(=S)[S][Au][PH](c1ccccc1-c1ccccc1)(C(C)(C)C)C(C)(C)C` [diethyldithiocarbamato-[(1,1′-biphenyl-2-yl)di-tert-butylphosphine] gold(I) complex]: the “Cells in G2/M arrest, A2780” value with A2780 cells [13] is “around 30%”.

Consider [Au(tpy)Cl(2-TU)], for which the IC50 in the data set on Caco-2 cells was 510 ± 280 nM.

The values are drawn from article PMC9916778 (International Journal of Molecular Sciences, 2023).
